# Measurements taken from patent US20060234866A1, “Formulations with the capacity to increase the efficiency of plants to assimilate different mineral nutrients, especially iron, in normal conditions and in conditions of deficiency of potentially assimilable iron” (Inabonos, S.A., a Spanish joint venture company, priority 2005, published 2006).
# System: pepper plants
# Test: Iron assimilation and development of pepper plants cultivated in hydroponia
# Format: in vivo
# Protocol: Four different treatments are presented that are applied to peppers: • 1. The control received a nutritive solution containing different nutrients. • 2. The treatment AIA that received the same nutritive control solution was also treated with indol-acetic acid (natural auxin) at a dose of 10^−6 M. • 3. […] The treatment IND2 that received the same nutritive control solution was also treated with the composition of Example 1 at a dose of 10^−9 M. The pepper plants were cultivated in hydroponia.
# [1] = dose 10^−6 M in nutritive solution
structure (smiles),measurement,setting,value
"O=C(O)Cc1c[nH]c2ccccc12 [AIA, indol-acetic acid]","Assimilated Fe, leaves",[1],0.335 mg plant^−1
same,"Assimilated Fe, root",[1],2.90 mg plant^−1
same,"Dry matter, leaves",[1],4.04 g plant^−1
same,"Dry matter, root",[1],1.43 g plant^−1
same,"Dry matter, stem",[1],1.09 g plant^−1
same,"Assimilated Fe, leaves (% of control)","dose 10^−6 M, control = 100",103.4%
same,"Assimilated Fe, root (% of control)","dose 10^−6 M, control = 100",109.8%
same,"Dry matter, leaves (% of control)","dose 10^−6 M, control = 100",136%
same,"Dry matter, root (% of control)","dose 10^−6 M, control = 100",130%
same,"Dry matter, stem (% of control)","dose 10^−6 M, control = 100",138%
same,assimilation and translocation of iron (in words),versus control,no significant effects
same,biostimulant effect (in words),versus control,presents a biostimulant effect
